ChEMBL document CHEMBL4431347, “Synthesis and biological evaluation of novel (E)-N'-(2,3-dihydro-1H-inden-1-ylidene) benzohydrazides as potent LSD1 inhibitors” (Bioorg Med Chem Lett, 2016)
pIC50: −log10 of the molar value.

Legend:
MDA-MB-231 [1] = test: Antiproliferative activity against human MDA-MB-231 cells over-expressing LSD1 assessed as reduction in cell viability measured after 72 hrs by MTT assay; conditions: MDA-MB-231, 72 h
SMMC-7721 [2] = test: Antiproliferative activity against human SMMC7721 cells over-expressing LSD1 assessed as reduction in cell viability measured after 96 hrs by MTT assay; conditions: SMMC-7721, 96 h
MDA-MB-231 [3] = test: Antiproliferative activity against human MDA-MB-231 cells over-expressing LSD1 assessed as reduction in cell viability measured after 96 hrs by MTT assay; conditions: MDA-MB-231, 96 h
A549 [4] = test: Antiproliferative activity against human A549 cells over-expressing LSD1 assessed as reduction in cell viability measured after 72 hrs by MTT assay; conditions: A549, 72 h
HCT-116 [5] = test: Antiproliferative activity against human HCT116 cells over-expressing LSD1 assessed as reduction in cell viability measured after 96 hrs by MTT assay; conditions: HCT-116, 96 h
MCF7 [6] = test: Antiproliferative activity against human MCF7 cells over-expressing LSD1 assessed as reduction in cell viability measured after 96 hrs by MTT assay; conditions: MCF7, 96 h
PC-3 [7] = test: Antiproliferative activity against human PC3 cells over-expressing LSD1 assessed as reduction in cell viability measured after 96 hrs by MTT assay; conditions: PC-3, 96 h
A2780 [8] = test: Antiproliferative activity against human A2780 cells over-expressing LSD1 assessed as reduction in cell viability measured after 72 hrs by MTT assay; conditions: A2780, 72 h
SMMC-7721 [9] = test: Antiproliferative activity against human SMMC7721 over-expressing LSD1 cells assessed as reduction in cell viability measured after 72 hrs by MTT assay; conditions: SMMC-7721, 72 h
HCT-116 [10] = test: Antiproliferative activity against human HCT116 cells over-expressing LSD1 assessed as reduction in cell viability measured after 72 hrs by MTT assay; conditions: HCT-116, 72 h
A549 [11] = test: Antiproliferative activity against human A549 cells over-expressing LSD1 assessed as reduction in cell viability measured after 96 hrs by MTT assay; conditions: A549, 96 h
DU-145 [12] = test: Antiproliferative activity against human DU145 cells over-expressing LSD1 assessed as reduction in cell viability measured after 72 hrs by MTT assay; conditions: DU-145, 72 h
NCI-H1299 [13] = test: Antiproliferative activity against human NCI-H1299 cells over-expressing LSD1 assessed as reduction in cell viability measured after 96 hrs by MTT assay; conditions: NCI-H1299, 96 h
A2780 [14] = test: Antiproliferative activity against human A2780 cells over-expressing LSD1 assessed as reduction in cell viability measured after 96 hrs by MTT assay; conditions: A2780, 96 h
DU-145 [15] = test: Antiproliferative activity against human DU145 cells over-expressing LSD1 assessed as reduction in cell viability measured after 96 hrs by MTT assay; conditions: DU-145, 96 h
MCF7 [16] = test: Antiproliferative activity against human MCF7 cells over-expressing LSD1 assessed as reduction in cell viability measured after 72 hrs by MTT assay; conditions: MCF7, 72 h
PC-3 [17] = test: Antiproliferative activity against human PC3 cells over-expressing LSD1 assessed as reduction in cell viability measured after 72 hrs by MTT assay; conditions: PC-3, 72 h
NCI-H1299 [18] = test: Antiproliferative activity against human NCI-H1299 cells over-expressing LSD1 assessed as reduction in cell viability measured after 72 hrs by MTT assay; conditions: NCI-H1299, 72 h

pIC50 (MDA-MB-231 [1]) | pIC50 (SMMC-7721 [2]) | pIC50 (MDA-MB-231 [3]) | pIC50 (A549 [4]) | pIC50 (HCT-116 [5]) | pIC50 (MCF7 [6]) | pIC50 (PC-3 [7]) | pIC50 (A2780 [8]) | pIC50 (SMMC-7721 [9]) | pIC50 (HCT-116 [10]) | pIC50 (A549 [11]) | pIC50 (DU-145 [12]) | pIC50 (NCI-H1299 [13]) | pIC50 (A2780 [14]) | pIC50 (DU-145 [15]) | pIC50 (MCF7 [16]) | pIC50 (PC-3 [17]) | pIC50 (NCI-H1299 [18]) | Compound
6.15 | 5.91 | 6.34 | 6.11 | 6.57 | 6.52 | 6.12 | 5.95 | 5.50 | 6.32 | 6.40 | 5.53 | 6.01 | 6.10 | 6.74 | 6.39 | 5.61 | 5.48 | O=C(N/N=C1\CCc2c(Cl)ccc(O)c21)c1cccc(S(=O)(=O)N2CCOCC2)c1
6.17 | 5.87 | 6.39 | 6.04 | 6.60 | 6.66 | 6.00 | 6.09 | 5.53 | 6.44 | 6.41 | 5.60 | 6.10 | 6.47 | 6.66 | 6.52 | 5.51 | 5.70 | O=C(N/N=C1\CCc2cccc(O)c21)c1cccc(S(=O)(=O)N2CCOCC2)c1

Compound | pIC50 (MDA-MB-231 [1]) | pIC50 (SMMC-7721 [2]) | pIC50 (MDA-MB-231 [3]) | pIC50 (A549 [4]) | pIC50 (HCT-116 [5]) | pIC50 (MCF7 [6]) | pIC50 (PC-3 [7]) | pIC50 (A2780 [8]) | pIC50 (SMMC-7721 [9]) | pIC50 (HCT-116 [10]) | pIC50 (A549 [11]) | pIC50 (DU-145 [12]) | pIC50 (NCI-H1299 [13]) | pIC50 (A2780 [14]) | pIC50 (DU-145 [15]) | pIC50 (MCF7 [16]) | pIC50 (PC-3 [17]) | pIC50 (NCI-H1299 [18])
C/C(=N\NC(=O)c1cccc(S(=O)(=O)N2CCOCC2)c1)c1cc(Cl)ccc1O | 5.85 | 5.27 | 6.12 | 5.57 | 6.48 | 6.72 | 5.35 | 5.67 | 4.80 | 6.19 | 6.08 | 4.88 | 5.76 | 6.11 | 6.21 | 6.36 | 4.71 | 5.52
